Data taken from US5134137A, “Cephalosporin antibiotics” (The Upjohn Company, priority 1990, dated 1992).
In brackets after ≈: the same amount, converted by molar mass. Where two headings read alike, the source gives them in different places.

Experiments:
Assay type in all cases: cell-based
Corynebacterium pyogenes = experiment: MIC, agar dilution, Corynebacterium pyogenes; conditions: strain 213-2; read-out: MIC
Method: (§1) Stock solution of each test antibiotic compound were prepared to have a concentration of 2 mg. of the test compound per milliliter in sterile water of 0.1M ammonium acetate solution. The amount of each compound used was adjusted for base compound activity as calculated from the purity data for the selected batch of compound.
(§2) The dilution procedure described by Washington and Sutter [Manual of Clinical Microbiology, 3rd, Edit. (Lennett, E. H. et al, Eds.), pp. 453-458 (1980), American Society for Microbiology, Washington, D.C.] was modified so that serial concentrations of 128 to 0.0625 microgram/ml. in sterile water was obtained. Then 1.5 ml. aliquots of these test antibiotic dilution mixtures are added to 13.5 molten (50° C.) Mueller-Hinton agar. Each resulting mixture is poured into 15×100 mm, sterile Petri plates and allowed to dry at room temperature overnight.
(§3) Test bacterial cultures are maintained at -70° C. on glass beads. [See R. J. Yancey, Jr. et al, Amer. Jr. of Vet. Research, 48, No. 7, pp. 1050-1053, (1987)]. At least one bacteria-laden bead per culture is dropped into one ml. of brain heart infusion (BHI) broth for overnight culture at 37° C. in 5% V/V carbon dioxide in air atmosphere.
(§4) On the data of assay, 2 to 8 drops of the bacterial broth cultures are transferred to fresh BHI broth (1 ml.) and the mixture is incubated for 4 to 6 hours at 37° C. in a 5% V/V carbon dioxide in air atmosphere. The resulting cultures are then diluted to match a 0.5 MacFarland standard and further diluted 1:20 V/V with sterile saline solution.
(§5) A 0.001 ml. drop of the resulting mixture, containing approximately 10^3 to 10^4 colony forming units (CFU) of each test bacteria organism, is dispensed onto the surface of the test antibiotic compound test plates with a Steer's type replicator. The resulting innoculated plates are incubated 16 to 18 hours at 37° C. with a carbon dioxide atmosphere.
as §1, with “Stock solutions” for “Stock solution”
as §2, with “mm.” for “mm,”
as §2, with “for Microbiology.” for “for Microbiology,”, “15×100 mm.” for “15×100 mm,”
as §3, with “culture” for “cultures”
(§6) On the day of assay, 2 to 8 drops of the bacterial broth cultures are transferred to fresh BHI broth (1 ml.) and the mixture is incubated for 4 to 6 hours at 37° C. in a 5% V/V carbon dioxide in air atmosphere. […]

Streptococcus suis = experiment: MIC, agar dilution, Streptococcus suis; conditions: Streptococcus suis; strain 650-2; read-out: MIC
Method: as §1, §2, §3, §4, §5
as §1, with “Stock solutions” for “Stock solution”
as §2, with “mm.” for “mm,”
as §2, with “for Microbiology.” for “for Microbiology,”, “15×100 mm.” for “15×100 mm,”
as §3, with “culture” for “cultures”
as §6

[1] = tested on: Bordetella bronchiseptica; experiment: MIC, agar dilution, Bordetella bronchiseptica; conditions: Bordetella bronchiseptica; strain UC6313; read-out: MIC
Method: as §1, §2, §3, §4, §5
as §1, with “Stock solutions” for “Stock solution”
as §2, with “mm.” for “mm,”
as §2, with “for Microbiology.” for “for Microbiology,”, “15×100 mm.” for “15×100 mm,”
as §3, with “culture” for “cultures”
as §6

Enterococcus faecalis = experiment: MIC, agar dilution, Enterococcus faecalis; conditions: Enterococcus faecalis; strain UC694; read-out: MIC
Method: as §1, with “Stock solutions” for “Stock solution”
as §2, §3, §4, §5, §1
as §2, with “mm.” for “mm,”
as §2, with “for Microbiology.” for “for Microbiology,”, “15×100 mm.” for “15×100 mm,”
as §3, with “culture” for “cultures”
as §6

Pseudomonas aeruginosa = experiment: MIC, agar dilution, Pseudomonas aeruginosa; conditions: Pseudomonas aeruginosa, read-out: MIC
Method: as §1, §2, §3, §4, §5
as §1, with “Stock solutions” for “Stock solution”
as §2, with “mm.” for “mm,”
as §2, with “for Microbiology.” for “for Microbiology,”, “15×100 mm.” for “15×100 mm,”
as §3, with “culture” for “cultures”
as §6

Staphylococcus aureus = experiment: MIC, agar dilution, Staphylococcus aureus; conditions: Staphylococcus aureus, read-out: MIC
Method: as §1, §2, §3, §4, §5
as §1, with “Stock solutions” for “Stock solution”
as §2, with “mm.” for “mm,”
as §2, with “for Microbiology.” for “for Microbiology,”, “15×100 mm.” for “15×100 mm,”
as §3, with “culture” for “cultures”
as §6

Pasteurella hemolytica = experiment: MIC (minimum inhibitory concentration), agar dilution, Pasteurella hemolytica; conditions: Pasteurella, read-out: MIC
Method: as §1, §2, §3, §4, §5
as §1, with “Stock solutions” for “Stock solution”
as §2, with “mm.” for “mm,”
as §2, with “for Microbiology.” for “for Microbiology,”, “15×100 mm.” for “15×100 mm,”
as §3, with “culture” for “cultures”
as §6

[2] = tested on: Streptococcus dysgalactiae; experiment: MIC, agar dilution, Streptococcus dysgalactiae; conditions: Streptococcus dysgalactiae; strain UC251; read-out: MIC
Method: as §1, §2, §3, §4, §5
as §1, with “Stock solutions” for “Stock solution”
as §2, with “mm.” for “mm,”
as §2, with “for Microbiology.” for “for Microbiology,”, “15×100 mm.” for “15×100 mm,”
as §3, with “culture” for “cultures”
as §6

Enterococcus faecium = experiment: MIC, agar dilution, Enterococcus faecium; conditions: Enterococcus faecium; strain UC241; read-out: MIC
Method: as §1, with “Stock solutions” for “Stock solution”
as §2, §3, §4, §5, §1
as §2, with “mm.” for “mm,”
as §2, with “for Microbiology.” for “for Microbiology,”, “15×100 mm.” for “15×100 mm,”
as §3, with “culture” for “cultures”
as §6

Salmonella choleraesuis = experiment: MIC, agar dilution, Salmonella choleraesuis; conditions: Salmonella enterica, read-out: MIC
Method: as §1, §2, §3, §4, §5
as §1, with “Stock solutions” for “Stock solution”
as §2, with “mm.” for “mm,”
as §2, with “for Microbiology.” for “for Microbiology,”, “15×100 mm.” for “15×100 mm,”
as §3, with “culture” for “cultures”
as §6

Micrococcus luteus = experiment: MIC, agar dilution, Micrococcus luteus; conditions: Micrococcus luteus; strain UC130; read-out: MIC
Method: as §1, §2, §3, §4, §5
as §1, with “Stock solutions” for “Stock solution”
as §2, with “mm.” for “mm,”
as §2, with “for Microbiology.” for “for Microbiology,”, “15×100 mm.” for “15×100 mm,”
as §3, with “culture” for “cultures”
as §6

Pasteurella multocida = experiment: MIC, agar dilution, Pasteurella multocida; conditions: Pasteurella multocida; strain UC9581; read-out: MIC
Method: as §1, §2, §3, §4, §5
as §1, with “Stock solutions” for “Stock solution”
as §2, with “mm.” for “mm,”
as §2, with “for Microbiology.” for “for Microbiology,”, “15×100 mm.” for “15×100 mm,”
as §3, with “culture” for “cultures”
as §6

Streptococcus agalactiae = experiment: MIC, agar dilution, Streptococcus agalactiae; conditions: Streptococcus agalactiae, read-out: MIC
Method: as §1, §2, §3, §4, §5
as §1, with “Stock solutions” for “Stock solution”
as §2, with “mm.” for “mm,”
as §2, with “for Microbiology.” for “for Microbiology,”, “15×100 mm.” for “15×100 mm,”
as §3, with “culture” for “cultures”
as §6

Streptococcus uberis = experiment: MIC, agar dilution, Streptococcus uberis; conditions: Streptococcus uberis, read-out: MIC
Method: as §1, §2, §3, §4, §5
as §1, with “Stock solutions” for “Stock solution”
as §2, with “mm.” for “mm,”
as §2, with “for Microbiology.” for “for Microbiology,”, “15×100 mm.” for “15×100 mm,”
as §3, with “culture” for “cultures”
as §6

Streptococcus bovis = experiment: MIC, agar dilution, Streptococcus bovis; conditions: Streptococcus equinus; strain UC6281; read-out: MIC
Method: as §1, §2, §3, §4, §5
as §1, with “Stock solutions” for “Stock solution”
as §2, with “mm.” for “mm,”
as §2, with “for Microbiology.” for “for Microbiology,”, “15×100 mm.” for “15×100 mm,”
as §3, with “culture” for “cultures”
as §6

Escherichia coli = experiment: MIC, agar dilution, Escherichia coli; conditions: Escherichia coli, read-out: MIC
Method: as §1, §2, §3, §4, §5
as §1, with “Stock solutions” for “Stock solution”
as §2, with “mm.” for “mm,”
as §2, with “for Microbiology.” for “for Microbiology,”, “15×100 mm.” for “15×100 mm,”
as §3, with “culture” for “cultures”
as §6

Salmonella typhimurium = experiment: MIC, agar dilution, Salmonella typhimurium; conditions: Salmonella enterica, read-out: MIC
Method: as §1, §2, §3, §4, §5
as §1, with “Stock solutions” for “Stock solution”
as §2, with “mm.” for “mm,”
as §2, with “for Microbiology.” for “for Microbiology,”, “15×100 mm.” for “15×100 mm,”
as §3, with “culture” for “cultures”
as §6

[3] = CHOLERAESUIS / UC6073, strain UC6073
[4] = CHOLERAESUIS / UC6077, strain UC6077
[5] = TYPHIMURIUM / UC6162, strain UC6162
[6] = TYPHIMURIUM / UC6164, strain UC6164

SMILES	MIC (Corynebacterium pyogenes)	MIC (Streptococcus suis)	MIC [1]	MIC (Enterococcus faecalis)	MIC (Staphylococcus aureus; strain UC6093)	MIC (Staphylococcus aureus; strain UC6097)	MIC (Staphylococcus aureus; strain UC9203)	MIC (Pasteurella hemolytica; strain UC6531)	MIC (Pasteurella hemolytica; strain UC6532)	MIC (Pasteurella hemolytica; strain UC9582)	MIC [2]	MIC (Enterococcus faecium)	MIC (Salmonella choleraesuis; [3])	MIC (Salmonella choleraesuis; [4])	MIC (Micrococcus luteus)	MIC (Pasteurella multocida)	MIC (Streptococcus agalactiae; strain UC3947)	MIC (Streptococcus agalactiae; strain UC6892)	MIC (Streptococcus uberis; strain UC3946)	MIC (Streptococcus uberis; strain UC6159)	other results
CO/N=C(\C(=O)N[C@@H]1C(=O)N2C(C(=O)O)=C(CSSCC3=C(C(=O)O)N4C(=O)[C@@H](NC(=O)/C(=N\OC)c5csc(N)n5)[C@H]4SC3)CS[C@H]12)c1csc(N)n1 [Example 5, 1,1-bis-(7β)-(2-(2-amino-1,3-thiazol-4-yl)-(Z)-2-(methoxyimino)acetamido-4-carboxy-3-cephem-3-yl)dimethyldisulfide]	0.25 µg/mL (≈ 0.292 µM)	≤ 0.06 µg/mL	> 32 µg/mL	> 32 µg/mL	16 µg/mL (≈ 18.7 µM)	16 µg/mL (≈ 18.7 µM)	16 µg/mL (≈ 18.7 µM)	≤ 0.06 µg/mL	≤ 0.06 µg/mL	≤ 0.06 µg/mL	≤ 0.06 µg/mL	> 32 µg/mL	4 µg/mL (≈ 4.67 µM)	8 µg/mL (≈ 9.33 µM)	≤ 0.06 µg/mL	≤ 0.06 µg/mL	≤ 0.06 µg/mL	≤ 0.06 µg/mL	0.25 µg/mL (≈ 0.292 µM)	16 µg/mL (≈ 18.7 µM)	MIC (Pseudomonas aeruginosa; strain ATCC27853): > 32 µg/mL; MIC (Streptococcus bovis): ≤ 0.06 µg/mL; MIC (Escherichia coli; strain UC3784): 2 µg/mL (≈ 2.33 µM); MIC (Escherichia coli; strain UC6720): 2 µg/mL (≈ 2.33 µM); MIC (Escherichia coli; strain UC9670): 2 µg/mL (≈ 2.33 µM); MIC (Salmonella typhimurium; [5]): 2 µg/mL (≈ 2.33 µM); MIC (Salmonella typhimurium; [6]): 2 µg/mL (≈ 2.33 µM)
CO/N=C(\C(=O)N[C@@H]1C(=O)N2C(C(=O)O)=C(CSSc3ccccc3)CS[C@H]12)c1csc(N)n1 [Example 15]	4 µg/mL (≈ 7.44 µM)	≤ 0.06 µg/mL	> 32 µg/mL	> 32 µg/mL	2 µg/mL (≈ 3.72 µM)	2 µg/mL (≈ 3.72 µM)	2 µg/mL (≈ 3.72 µM)	0.13 µg/mL (≈ 0.242 µM)	0.25 µg/mL (≈ 0.465 µM)	0.25 µg/mL (≈ 0.465 µM)	≤ 0.06 µg/mL	> 32 µg/mL	32 µg/mL (≈ 59.5 µM)	32 µg/mL (≈ 59.5 µM)	≤ 0.06 µg/mL	≤ 0.06 µg/mL	≤ 0.06 µg/mL	≤ 0.06 µg/mL	≤ 0.06 µg/mL	16 µg/mL (≈ 29.8 µM)	MIC (Pseudomonas aeruginosa; ATCC27853, strain ATCC 27853): > 32 µg/mL; MIC (Streptococcus bovis): ≤ 0.06 µg/mL; MIC (Escherichia coli; strain UC3784): 8 µg/mL (≈ 14.9 µM); MIC (Escherichia coli; strain UC6720): 8 µg/mL (≈ 14.9 µM); MIC (Escherichia coli; strain UC9670): 8 µg/mL (≈ 14.9 µM); MIC (Salmonella typhimurium; [5]): 16 µg/mL (≈ 29.8 µM); MIC (Salmonella typhimurium; [6]): 8 µg/mL (≈ 14.9 µM)
CO/N=C(\C(=O)N[C@@H]1C(=O)N2C(C(=O)O)=C(CSSc3ccc(Cl)cc3)CS[C@H]12)c1csc(N)n1 [Example 17]	≤ 0.06 µg/mL	≤ 0.06 µg/mL	> 32 µg/mL	> 32 µg/mL	4 µg/mL (≈ 6.99 µM)	2 µg/mL (≈ 3.5 µM)	2 µg/mL (≈ 3.5 µM)	≤ 0.06 µg/mL	0.13 µg/mL (≈ 0.227 µM)	0.13 µg/mL (≈ 0.227 µM)	≤ 0.06 µg/mL	> 32 µg/mL	8 µg/mL (≈ 14 µM)	8 µg/mL (≈ 14 µM)	≤ 0.06 µg/mL	≤ 0.06 µg/mL	≤ 0.06 µg/mL	≤ 0.06 µg/mL	≤ 0.06 µg/mL	4 µg/mL (≈ 6.99 µM)	MIC (Pseudomonas aeruginosa; ATCC27853, strain ATCC 27853): > 32 µg/mL; MIC (Streptococcus bovis): ≤ 0.06 µg/mL; MIC (Escherichia coli; strain UC3784): 2 µg/mL (≈ 3.5 µM); MIC (Escherichia coli; strain UC6720): 4 µg/mL (≈ 6.99 µM); MIC (Escherichia coli; strain UC9670): 8 µg/mL (≈ 14 µM); MIC (Salmonella typhimurium; [5]): 4 µg/mL (≈ 6.99 µM); MIC (Salmonella typhimurium; [6]): 4 µg/mL (≈ 6.99 µM)
